The source of these data is US12234211B2, “Cycloolefin substituted heteroaromatic compounds and their use” (HUTCHISON MEDIPHARMA LIMITED, priority 2017, dated 2025).

This test deals with T1, IDH2-R140Q (Homo sapiens, UniProt P48735, R140Q).
T1 construct: expressed in transfected cells
T1 sequence (P48735 40-452 R140Q): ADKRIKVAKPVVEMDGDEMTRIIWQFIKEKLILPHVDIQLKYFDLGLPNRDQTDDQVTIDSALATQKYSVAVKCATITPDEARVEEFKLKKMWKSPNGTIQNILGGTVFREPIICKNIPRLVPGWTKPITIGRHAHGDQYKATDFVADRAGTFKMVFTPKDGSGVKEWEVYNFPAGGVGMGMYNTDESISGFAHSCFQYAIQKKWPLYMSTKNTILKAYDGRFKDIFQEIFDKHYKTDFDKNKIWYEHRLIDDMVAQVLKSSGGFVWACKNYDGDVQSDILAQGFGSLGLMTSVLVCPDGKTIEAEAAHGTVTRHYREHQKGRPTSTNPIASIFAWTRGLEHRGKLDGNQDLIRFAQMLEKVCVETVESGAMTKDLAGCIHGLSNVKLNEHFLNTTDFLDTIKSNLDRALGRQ
Put plainly: Fluorescent determination of IDH2-R140Q cell activity (2-HG in U87MGR140Q cells). The test is classed as cell-based. The note with it: 72 hours incubation, read-out: IC50 (2-HG inhibition). How it is done:
Enzyme reaction solution: 1 mM nicotinamide adenine dinucleotide (NAD), 0.6 ng/μL D-2-hydroxyglutarate dehydrogenase (D2HGDH), 0.8 U/mL lipoamidase dehydrogenase (Diaphorase) and 60 μM Resazurin in 40 mM Tris.HCl pH 8.8 assay buffer.
Standard curve stock solution: The standard of 2-HG sodium salt was serially diluted in serum-free MEM medium to make a standard curve stock solution.
100 μL of U87MGR140Q cells were seeded at a density of 6×10^4/mL per well in a 96-well plate a.
From each well of 96-well plate a, 50 μL of the culture supernatant was transferred to the corresponding well of 96-well plate b; at the same time, 50 μL of standard curve stocking solution was added to other wells of 96-well plate b. Then 10 μl of 360 mM hydrochloric acid was added to all the wells. After shaking and mixing, the plate was placed on ice for 10 minutes, and then 10 μl of 420 mM Tris-base was added. After shaking and mixing, the plate was placed on ice for additional 5 minutes. Then the plate was centrifuged at 2500 rpm for 10 minutes.
After centrifuging, from each well of 96-well plate b, 20 μL of the supernatant was transferred to 96-well plate c. An additional 80 μL of the enzyme reaction solution was added to each well and incubated at 25° C. for 90 minutes.
A standard curve of the fluorescence value vs. the corresponding 2-HG concentration was made, and the 2-HG concentration corresponding to each concentration point of the compound was calculated, then the inhibition ratio was calculated, and the data was analyzed using XLfit5 (ID Business Solutions Limited) software to obtain the IC50 value.
The inhibition ratio was calculated as follows: Inhibition Ratio (IH %)=(1-2-HG concentration of test compound treated cells/2-HG concentration of control cells)×100%.
For `C[C@@H](Nc1nc(NOC(C)(C)C)nc(C2=C(F)C(O)CCC2)n1)C(F)(F)F` (mixture of isomers) [Compound 172], the IC50 is 0.344 µM. As for `COC[C@H](C)Nc1nc(N[C@H](C)C(F)(F)F)nc(C2=CC(O)CCC2)n1` (stereo partly drawn) [Compound 183], the IC50 was 0.507 µM.

With `C[C@@H](Nc1nc(NC2CC23CC3)nc(C2=C(F)C(O)CCC2)n1)C(F)(F)F` (mixture of isomers) [Compound 42], the IC50 stood at 0.152 µM. Then `C[C@@H](Nc1nc(NCC(F)(F)F)nc(C2=CC(O)CCC2)n1)C(F)(F)F` (mixture of isomers) [Compound 154], with 0.202 µM. Then `OC1CCCC(c2nc(NC3CC3)nc(NC3CC(F)(F)C3)n2)=C1F` (stereo not drawn) [Compound 49], with 0.21 µM. Consider `C[C@H](CF)Nc1nc(NC2CC(F)(F)C2)nc(C2=C(F)C(O)CCC2)n1` (stereo partly drawn) [Compound 43], for which the IC50 is 0.328 µM. For `C[C@@H](Nc1nc(N[C@@H]2C[C@@H]2F)nc(C2=C(F)C(O)CCC2)n1)C(F)(F)F` (mixture of isomers) [Compound 16], the IC50 came out at 0.326 µM. For `CCNc1nc(N[C@H](C)C(F)(F)F)nc(C2=CC(O)CCC2)n1` (mixture of isomers) [Compound 135], the IC50 is 0.336 µM.

Turning to `[2H]C1([2H])CCC(c2nc(Nc3ccnc(C(F)(F)F)c3)nc(NC([2H])(C([2H])([2H])[2H])C([2H])([2H])[2H])n2)=C(F)C1O` (stereo not drawn) [Compound 86], the IC50 came to 0.021 µM. Take `CC(C)Nc1nc(N[C@H](C)C(F)(F)F)nc(C2=CCCCC2)n1` [Compound 190, (R)-6-(cyclohex-1-en-1-yl)-N^2-isopropyl-N^4-(1,1,1-trifluoropropan-2-yl)-1,3,5-triazine-2,4-diamine]: the IC50 came to 0.413 µM. Take `C[C@@H](Nc1nc(N[C@H](C)C2CC2)nc(C2=CCCCC2)n1)C1CC1` [Compound 191]: the IC50 amounted to 0.999 µM. As for `CCCNc1nc(N[C@H](C)C(F)(F)F)nc(C2=CC(O)CCC2)n1` (mixture of isomers) [Compound 133], the half-inhibitory concentration (IC50) was 0.174 µM.

Turning to `[2H]C1(O)CCCCC(c2nc(NC3CC(F)(F)C3)nc(NC3CC(F)(F)C3)n2)=C1F` (stereo not drawn) [Compound 22], the IC50 was 0.336 µM. Take `COC1C=C(c2nc(N[C@H](C)C(F)(F)F)nc(N[C@H](C)C(F)(F)F)n2)CCC1` (mixture of isomers) [Compound 140, 6-(3-Methoxycyclohex-1-en-1-yl)-N^2,N^4-bis((R)-1,1,1-trifluoropropan-2-yl)-1,3,5-triazine-2,4-diamine]: the IC50 came out at 2.39 µM. In the case of `[2H]C1([2H])CCC(c2nc(NC3CC(F)(F)C3)nc(N[C@@H](C)C(F)(F)F)n2)=C(F)C1([2H])O` (mixture of isomers) [Compound 90], the IC50 is 0.065 µM. On to `C[C@@H](Nc1nc(NCC(F)(F)F)nc(C2=C(F)C(O)C(F)(F)CC2)n1)C(F)(F)F` (mixture of isomers) [Compound 208], for which the IC50 was found to be 0.102 µM. As for `C[C@@H](Nc1nc(N[C@@H]2CCC[C@@H]2O)nc(C2=CC(O)CCC2)n1)C(F)(F)F` (stereo partly drawn) [Compound 182], the IC50 was determined as 1.23 µM. As for `CC(C)Nc1nc(N[C@H](C)C(F)(F)F)nc(C2=CCCC(F)C2)n1` (mixture of isomers) [Compound 37], the half-maximal inhibitory concentration (IC50) is 1.91 µM. Turning to `C[C@@H](Nc1nc(NC2COC2)nc(C2=CC(O)CCC2)n1)C(F)(F)F` (stereo partly drawn) [Compound 178], the half-inhibitory concentration (IC50) was 0.934 µM. For the molecule `[2H]C([2H])([2H])C([2H])(Nc1nc(NC2CC(F)(F)C2)nc(C2=C(F)C(O)CCC2)n1)C([2H])([2H])[2H]` (stereo not drawn) [Compound 55], the concentration for half-maximal inhibition (IC50) is 0.103 µM. In the case of `OC1CCCC(c2nc(NC3CC3)nc(NC3CC(F)(F)C3)n2)=C1F` (stereo not drawn) [Compound 27], the IC50 amounted to 0.148 µM. Consider `C[C@@H](Nc1nc(NCC(C)(C)O)nc(C2=CCCCC2)n1)C(F)(F)F` [Compound 188], for which the IC50 is 5.02 µM. Then `[2H]C1([2H])CCC(c2nc(NC(C)C)nc(NC3CC(F)(F)C3)n2)=C(F)C1([2H])O` (racemic) [Compound 92], with 0.143 µM; and `CC(CO)Nc1nc(N[C@H](C)C(F)(F)F)nc(C2=CC(O)CCC2)n1` (mixture of isomers) [Compound 184], with 3.78 µM. As to `C[C@@H](Nc1nc(NC2CC2)nc(C2=CC(O)CCC2)n1)C(F)(F)F` (mixture of isomers) [Compound 129], the IC50 was found to be 0.171 µM. Then `CCCNc1nc(N[C@H](C)C(F)(F)F)nc(C2=C(F)C(O)C(F)(F)CC2)n1` (mixture of isomers) [Compound 248], with 0.093 µM. Turning to `C[C@@H](Nc1nc(Nc2ccn3ccnc3c2)nc(C2=C(F)C(O)CCC2)n1)C(F)(F)F` (stereo partly drawn) [Compound 44], the IC50 came out at 3.15 µM.

Regarding `C[C@@H](Nc1nc(NC2CC3(C2)CC(F)(F)C3)nc(C2=C(F)C(O)CCC2)n1)C(F)(F)F` (mixture of isomers) [Compound 160], the IC50 is 0.18 µM.

On to `CC(C)Nc1nc(NC2CC(F)(F)C2)nc(C2=C(F)C(O)CCC2)n1` (stereo not drawn) [Compound 28], for which the IC50 amounted to 0.123 µM.

`CC(C)Nc1nc(N[C@H](C)C(F)(F)F)nc(C2=CCCC(O)C2)n1` (mixture of isomers) [Compound 144, 3-(4-(Isopropylamino)-6-(((R)-1,1,1-trifluoropropan-2-yl)amino)-1,3,5-triazin-2-yl)cyclohex-3-en-1-ol]: the half-maximal inhibitory concentration (IC50) amounted to 2.75 µM. As to `C[C@@H](Nc1nc(N[C@H](C)C(F)(F)F)nc(C2=CCCCC2)n1)C(F)(F)F` [Compound 186, 6-(Cyclohex-1-en-1-yl)-N^2,N^4-bis((R)-1,1,1-trifluoropropan-2-yl)-1,3,5-triazine-2,4-diamine], the IC50 worked out at 0.677 µM. `CC(C)Nc1nc(Nc2cnn(C)c2)nc(C2=C(F)C(O)CCC2)n1` (stereo not drawn) [Compound 57]: the IC50 came to 2.18 µM.

Consider `CC(C)Nc1nc(Nc2ccn3nccc3c2)nc(C2=C(F)C(O)CCC2)n1` (stereo not drawn) [Compound 59], for which the IC50 was found to be 0.221 µM. With `[2H]C([2H])([2H])Nc1nc(Nc2ccnc(C(F)(F)F)c2)nc(C2=C(F)C(O)CCC2)n1` (stereo not drawn) [Compound 58], the IC50 is 0.169 µM. Then `CC(C)Nc1nc(N[C@H](C)C(F)(F)F)nc(C2=CC(F)(F)CCC2)n1` [Compound 138, (R)-6-(3,3-difluorocyclohex-1-en-1-yl)-N^2-isopropyl-N^4-(1,1,1-trifluoropropan-2-yl)-1,3,5-triazine-2,4-diamine], with 0.504 µM; and `C[C@@H](Nc1nc(NC2(C)CC2)nc(C2=CC(O)CCC2)n1)C(F)(F)F` (mixture of isomers) [Compound 156], with 0.657 µM. Turning to `C1=C(c2nc(NCC3CC3)nc(NCC3CC3)n2)CCCC1` [Compound 187], the IC50 was determined as 0.742 µM.

Regarding `CC(C)Nc1nc(N[C@H](C)C(F)(F)F)nc(C2=CC(F)CCC2)n1` (mixture of isomers) [Compound 36], the IC50 was found to be 0.181 µM. Regarding `C[C@@H](Nc1nc(NC2CCC(F)(F)C2)nc(C2=CC(O)CCC2)n1)C(F)(F)F` (mixture of isomers) [Compound 176], the IC50 turned out to be 0.612 µM. Then `C[C@@H](Nc1nc(N[C@@H]2CCOC2)nc(C2=CC(O)CCC2)n1)C(F)(F)F` (stereo partly drawn) [Compound 179], with 0.598 µM.

`C[C@@H](Nc1nc(NC2CC2)nc(C2=C(F)C(O)CCC2)n1)C(F)(F)F` (mixture of isomers) [Compound 162]: the IC50 stood at 0.177 µM.

On to `C[C@@H](Nc1nc(N[C@H]2CCOC2)nc(C2=CC(O)CCC2)n1)C(F)(F)F` (stereo partly drawn) [Compound 180], for which the IC50 was determined as 0.531 µM. `CC(C)Nc1nc(N[C@H](C)C(F)(F)F)nc(C2=CC(=O)CCC2)n1` [Compound 122, (R)-3-(4-(isopropylamino)-6-((1,1,1-trifluoropropan-2-yl)amino)-1,3,5-triazin-2-yl)cyclohex-2-en-1-one]: the IC50 was 1.34 µM.

Regarding `[2H]C1(O)CCCC(c2nc(N[C@@H](C)C(F)(F)F)nc(NC([2H])(C([2H])([2H])[2H])C([2H])([2H])[2H])n2)=C1F` (mixture of isomers) [Compound 30], the IC50 is 0.228 µM. As for `CC(C)Nc1nc(N[C@H](C)C(F)(F)F)nc(C2=CCCC2)n1` [Compound 189], the IC50 came out at 1.41 µM. Then `CC1CC1Nc1nc(NC2CC(F)(F)C2)nc(C2=C(F)C(O)CCC2)n1` (stereo not drawn) [Compound 50], with 0.072 µM; and `CC(C)Nc1nc(N[C@H](C)C(F)(F)F)nc(C2=C(F)C(F)CCC2)n1` (mixture of isomers) [Compound 35, 6-(2,3-Difluorocyclohex-1-en-1-yl)-N^2-isopropyl-N^4-((R)-1,1,1-trifluoropropan-2-yl)-1,3,5-triazine-2,4-diamine], with 0.591 µM; and `CC(C)(O)CNc1nc(Nc2ccnc(C(F)(F)F)c2)nc(C2=C(F)C(O)CCC2)n1` (stereo not drawn) [Compound 70], with 0.112 µM.

What is called IC50 is the concentration at which inhibition is half-maximal.
